Columns and labels:
[1] = target: neuraminidase (NA) of H1N1 (A/PR/8/34) (Influenza A virus (A/Puerto Rico/8/1934(H1N1)), UniProt P03468); assay: NA-Fluor fluorescence assay, whole virus; format: biochemical; conditions: read-out: % inhibition at 10 μmol/L
[2] = target: neuraminidase (NA) of H1N1 (A/PR/8/34) (Influenza A virus (A/Puerto Rico/8/1934(H1N1)), UniProt P03468); assay: NA-Fluor fluorescence assay, whole virus; format: biochemical; conditions: NA-Fluor substrate, […] °C, […] min preincubation, […] h

Sequence of neuraminidase (NA) of H1N1 (A/PR/8/34) (Influenza A virus (A/Puerto Rico/8/1934(H1N1)), UniProt P03468) (P03468 whole entry): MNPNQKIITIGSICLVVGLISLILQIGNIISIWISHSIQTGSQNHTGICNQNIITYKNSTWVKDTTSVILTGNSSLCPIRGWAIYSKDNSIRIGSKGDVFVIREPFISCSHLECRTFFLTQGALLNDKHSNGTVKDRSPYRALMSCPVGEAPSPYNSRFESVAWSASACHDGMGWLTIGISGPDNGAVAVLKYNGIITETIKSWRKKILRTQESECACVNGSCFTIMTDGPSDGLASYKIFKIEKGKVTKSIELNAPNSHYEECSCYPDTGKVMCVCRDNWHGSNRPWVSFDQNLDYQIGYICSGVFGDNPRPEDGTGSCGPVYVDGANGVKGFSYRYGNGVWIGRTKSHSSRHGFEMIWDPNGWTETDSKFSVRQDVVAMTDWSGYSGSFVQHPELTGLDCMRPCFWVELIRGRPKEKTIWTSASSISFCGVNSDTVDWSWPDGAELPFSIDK

Compound	inhibition at 10 µM [1] [%]	% inhibition at 10 μmol/L [2]
Oc1ccc([C@H]2c3c(O)cc(O)cc3[C@H]3c4c(cc(O)cc4[C@@H]2c2cc(/C=C/c4cc(O)cc5c4[C@H](c4cc(O)cc(O)c4)[C@@H](c4ccc(O)cc4)O5)ccc2O)O[C@@H]3c2ccc(O)cc2)cc1 [vitisin A]	43	–
Oc1ccc(/C=C/c2cc(O)cc3c2[C@@H](c2cc(O)cc(O)c2)[C@H](c2ccc(O)cc2)O3)cc1 [ε-viniferin]	–	Ampelopsin A and ε-viniferin exhibited weak inhibitory effects

From publication PMC9939323 (Acta Pharmaceutica Sinica. B, 2022)
